This is an account of results in US20230265151A1, “GIP/GLP1 CO-AGONIST COMPOUNDS” (priority 2020, published 2023).

Where two headings read alike, the source gives them in different places. *1 amine or outer side, *2 acyl side, *3 side chain or, on linkers, in order; H or OH if unused. Where a SMILES comes first, the peptide text is derived from it. Side-chain parts run from the residue outwards. [ ]: non-standard residue; d: D form. The star is where a group is joined. αMePhe(2-F) = C[C@](N)(Cc1ccccc1F)C(=O)O; γGlu = O=C(O)[C@H](CCC(=O)[*:2])N[*:1]; αMeY = C[C@](N)(Cc1ccc(O)cc1)C(=O)O; αMeF = C[C@](N)(Cc1ccccc1)C(=O)O; αMeL = CC(C)C[C@](C)(N)C(=O)O; Lauroyl = CCCCCCCCCCCC(=O)*; Orn = NCCC[C@H](N)C(=O)O; AEEA = NCCOCCOCC(=O)O; Aib = CC(C)(N)C(=O)O

Holding throughout (assay type): cell-based
One assay addresses T1, hGIPR (Homo sapiens, UniProt P48546).
T1 construct: expressed in transfected cells
T1 sequence (P48546 22-466): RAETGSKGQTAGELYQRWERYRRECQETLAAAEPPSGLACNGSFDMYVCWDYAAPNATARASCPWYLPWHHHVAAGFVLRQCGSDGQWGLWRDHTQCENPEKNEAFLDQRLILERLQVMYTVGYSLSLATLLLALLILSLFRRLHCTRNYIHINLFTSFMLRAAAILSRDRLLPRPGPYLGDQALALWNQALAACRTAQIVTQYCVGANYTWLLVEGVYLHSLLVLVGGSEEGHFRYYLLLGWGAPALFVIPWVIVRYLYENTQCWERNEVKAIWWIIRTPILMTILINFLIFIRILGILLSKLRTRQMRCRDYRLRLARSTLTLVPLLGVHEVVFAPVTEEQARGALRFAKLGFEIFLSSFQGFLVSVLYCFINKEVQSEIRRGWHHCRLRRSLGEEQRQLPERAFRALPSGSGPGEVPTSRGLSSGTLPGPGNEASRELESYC
The assay can be described thus: Functional cAMP formation (HTRF) in HEK-293 clonal cells expressing hGIPR, 0.1% bovine casein, without or with 1.0% human serum albumin. The following applies: 37° C.; for EC50: geometric mean, read-out: hGIPR EC50, nM (SEM, n); for Emax: percent of maximal response to GIP(1-42)NH2, read-out: hGIPR Emax, % ± SEM. A digest of the protocol: (§1)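 Cells were stimulated with peptide for 30 min at 37° C, then intracellular cAMP was measured by competitive HTRF (665/620 nm ratio) and converted to nM using a cAMP standard curve. Relative EC50 and Emax came from four-parameter logistic fits of percent maximal response against peptide concentration.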

A further assay addresses T2, hGCGR (Homo sapiens, UniProt P47871).
T2 construct: expressed in transfected cells
Nature of the assay: Functional cAMP formation (HTRF) in HEK-293 clonal cells expressing hGCGR, 0.1% bovine casein, without or with 1.0% human serum albumin. The following applies: 37° C., geometric mean, read-out: hGCGR EC50, nM (SEM, n). The gist of the method:
as §1

The next assay concerns the target hGLP-1R (Homo sapiens, UniProt P43220). Nature of the assay: Functional cAMP formation (HTRF) in HEK-293 clonal cells expressing hGLP-1R, 0.1% bovine casein, without or with 1.0% human serum albumin. The following applies: 37° C.; for EC50: geometric mean, read-out: hGLP-1R EC50, nM (SEM, n); for Emax: percent of maximal response to GLP-1(7-36)NH2, read-out: hGLP-1R Emax, % ± SEM. Set-up: expressed in transfected cells. A digest of the protocol:
as §1

The mark [1] stands for this setting: 0.1% bovine casein and 1.0% human serum albumin.
The mark [2] stands for this setting: cAMP, 0.1% bovine casein (no human serum albumin).
Setting [3] is: HEK293, 0.1% bovine casein and 1.0% human serum albumin.
Setting [4] is: HEK293, cAMP, 0.1% bovine casein, arithmetic mean.

Chain of hGLP-1R (P43220 24-463): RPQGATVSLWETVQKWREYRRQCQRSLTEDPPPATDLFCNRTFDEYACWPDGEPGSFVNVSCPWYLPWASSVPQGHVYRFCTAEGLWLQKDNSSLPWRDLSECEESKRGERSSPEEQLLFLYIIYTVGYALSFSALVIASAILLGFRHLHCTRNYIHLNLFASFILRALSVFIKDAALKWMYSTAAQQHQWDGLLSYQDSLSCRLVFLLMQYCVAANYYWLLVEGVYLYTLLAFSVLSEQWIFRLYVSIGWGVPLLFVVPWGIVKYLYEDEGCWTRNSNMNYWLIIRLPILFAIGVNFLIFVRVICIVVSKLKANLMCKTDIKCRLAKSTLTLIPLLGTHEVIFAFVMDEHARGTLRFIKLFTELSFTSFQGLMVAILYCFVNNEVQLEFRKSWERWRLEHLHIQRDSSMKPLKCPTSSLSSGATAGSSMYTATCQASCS
T2 sequence (P47871 26-477): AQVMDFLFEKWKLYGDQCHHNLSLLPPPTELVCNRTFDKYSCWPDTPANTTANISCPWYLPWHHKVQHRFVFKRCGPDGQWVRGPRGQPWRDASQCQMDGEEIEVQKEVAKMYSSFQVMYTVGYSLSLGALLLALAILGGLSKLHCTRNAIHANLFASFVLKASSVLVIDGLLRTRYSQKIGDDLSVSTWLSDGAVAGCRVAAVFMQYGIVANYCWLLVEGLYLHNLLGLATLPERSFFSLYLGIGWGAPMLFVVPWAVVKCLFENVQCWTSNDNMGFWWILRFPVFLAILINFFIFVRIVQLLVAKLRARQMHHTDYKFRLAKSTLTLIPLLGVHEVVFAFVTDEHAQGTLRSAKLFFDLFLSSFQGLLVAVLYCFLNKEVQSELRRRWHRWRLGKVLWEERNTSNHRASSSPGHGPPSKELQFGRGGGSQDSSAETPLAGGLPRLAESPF

Turning to `CCCCCCCCCCCC(=O)N[C@@H](CCC(=O)NCCOCCOCC(=O)NCCOCCOCC(=O)NCCCC[C@H](NC(=O)[C@H](CCCN)NC(=O)[C@H](CC(=O)O)NC(=O)[C@H](CC(C)C)NC(=O)[C@](C)(CC(C)C)NC(=O)[C@@H](NC(=O)[C@H](CO)NC(=O)[C@H](CCCCNC(=O)COCCOCCNC(=O)COCCOCCNC(=O)CC[C@H](NC(=O)CCCCCCCCCCC)C(=O)O)NC(=O)[C@H](CC(=O)O)NC(=O)[C@H](CO)NC(=O)[C@@H](NC(=O)[C@](C)(Cc1ccccc1F)NC(=O)[C@@H](NC(=O)CNC(=O)[C@H](CCC(=O)O)NC(=O)C(C)(C)NC(=O)[C@@H](N)Cc1ccc(O)cc1)[C@@H](C)O)[C@@H](C)O)[C@@H](C)CC)C(=O)N[C@@H](C)C(=O)N[C@@H](CCC(N)=O)C(=O)NC(C)(C)C(=O)N[C@@H](CCC(=O)O)C(=O)N[C@@](C)(Cc1ccccc1)C(=O)N[C@H](C(=O)N[C@H](CCC(=O)O)C(=O)N[C@@](C)(Cc1ccc(O)cc1)C(=O)N[C@@H](CC(C)C)C(=O)N[C@H](C(=O)N[C@@H](CCC(=O)O)C(=O)NCC(=O)NCC(N)=O)[C@@H](C)CC)[C@@H](C)CC)C(=O)O` [Example 297] (H-Y[Aib]EGT[αMePhe(2-F)]TSDK([AEEA-AEEA-γGlu-Lauroyl])SI[αMeL]LD[Orn]K([AEEA-AEEA-γGlu-Lauroyl])AQ[Aib]E[αMeF]I[dE][αMeY]LIEGG-NH2), the EC50 is 1.54 nM at hGIPR (setting [1]); 0.0112 nM on hGIPR (setting [2]); over 9950 nM on hGCGR (setting [1]); over 9950 nM on hGCGR (setting [2]); 19.1 nM on hGLP-1R (setting [1]); 0.125 nM on hGLP-1R (setting [2]).
As for `CCCC[C@H](NC(=O)[C@H](CC(=O)O)NC(=O)[C@H](CO)NC(=O)[C@@H](NC(=O)[C@](C)(Cc1ccccc1F)NC(=O)[C@@H](NC(=O)CNC(=O)[C@H](CCC(=O)O)NC(=O)C(C)(C)NC(=O)[C@@H](N)Cc1ccc(O)cc1)[C@@H](C)O)[C@@H](C)O)C(=O)N[C@@H](CO)C(=O)N[C@H](C(=O)N[C@@](C)(CC(C)C)C(=O)N[C@@H](CC(C)C)C(=O)N[C@@H](CC(=O)O)C(=O)N[C@@H](CCCN)C(=O)N[C@H](C(=O)N[C@@H](C)C(=O)N[C@@H](CCC(N)=O)C(=O)NC(C)(C)C(=O)N[C@@H](CCC(=O)O)C(=O)N[C@@H](Cc1ccccc1)C(=O)N[C@H](C(=O)N[C@@H](CCCCNC(=O)COCCOCCNC(=O)COCCOCCNC(=O)CC[C@H](NC(=O)CCCCCCCCCCCCC(=O)O)C(=O)O)C(=O)N[C@@](C)(Cc1ccc(O)cc1)C(=O)N[C@@H](CC(C)C)C(=O)N[C@H](C(=O)N[C@@H](CCCCNC(=O)COCCOCCNC(=O)COCCOCCNC(=O)CC[C@H](NC(=O)CCCCCCCCCCCCC(=O)O)C(=O)O)C(=O)NCC(=O)NCC(=O)N1CCC[C@H]1C(=O)N[C@@H](CO)C(=O)N[C@@H](CO)C(=O)NCC(=O)N[C@@H](C)C(=O)N1CCC[C@H]1C(=O)N1CCC[C@H]1C(=O)N1CCC[C@H]1C(=O)N[C@@H](CO)C(N)=O)[C@@H](C)CC)[C@@H](C)CC)[C@@H](C)CC)[C@@H](C)CC` [Example 269], the EC50 on hGIPR (setting [1]) was 2.65 nM; at hGCGR (setting [1]), over 9950 nM; on hGCGR (setting [2]), over 9950 nM; on hGLP-1R (setting [2]), 1.72 nM. The Emax worked out at 87.3% at hGIPR (setting [3]), 95.3% on hGIPR (setting [4]), 105% at hGLP-1R (setting [3]) and 96.5% on hGLP-1R (setting [4]).
